Source: patent publication US20200063108A1, “THREE-DIMENSIONAL TISSUE STRUCTURES” (Dana-Farber Cancer Institute, Inc., priority 2017, published 2020)

Experiments:
Type in all cases: cell-based
MDA-MB-231 3-D organoids = assay: Longitudinal exposure of MDA-MB-231 3-D organoids to cytotoxic drugs; conditions: 100 nM, 3D culture spheroids
Experimental: (§1) FIG. 1: Right: Longitudinal exposure of MDA-MB-231 3-D organoids and 2-D cultures to cytotoxic drugs (100 nM). […] Left: H&E staining of day-15 drug-refractory MDA-MB-231 organoids and respective control.
(§2) Viability is determined by methods known in the art. A preferred method to determine cell viability is the measurement of bioluminescence in cells stably transfected with the luciferase expression vector upon addition of the luciferase substrate. An alternative method to determine cell viability is the measurement of fluorescence in cells stably transfected with the expression vectors of fluorescent protein (e.g. GFP or RFP). Alternatively, the cell viability can be measured by ATP-based assays; for example the Cell-Titer Glow assay. Alternatively, the cell viability can be measured by colorimetric assays, for example the MTT assay. Alternatively, cell viability can be measured by conventional or automated microscopy methods as determined by the size and shape of the cancer organoids. Alternatively, cell viability can be measured by assays measuring mitochondrial function such as the BH3 profiling assay. […]

MDA-MB-231 2-D cultures = assay: Longitudinal exposure of MDA-MB-231 2-D cultures to cytotoxic drugs; conditions: 100 nM, 2D culture
Experimental: as §1, §2

[1] = tested on: breast cancer patient-derived 3-D organoids; assay: Regrowth of breast cancer patient-derived 3-D organoids after docetaxel washout; conditions: 100 nM for 10 days, then 8 weeks after washout
Experimental: FIG. 11: Breast cancer patient-derived 3-D organoids treated with DMSO-control (left) or 100 nM Docetaxel (center) for 10 days, and 8 weeks after docetaxel washout (right).

[2] = tested on: prostate cancer patient-derived 3-D organoids; assay: Exposure of prostate cancer patient-derived 3-D organoids to cytotoxic drugs; conditions: 100 nM, 3D conditions with Wnt-stimulator R-spondin, in vitro
Experimental: FIG. 2. Left: Exposure of prostate cancer patient-derived 3-D organoids, cultured in 3D conditions in the presence of Wnt-stimulator R-spondin, to cytotoxic drugs (100 nM; vinblastine highlighted with red) and validation of vinblastine response in the respective patient-derived xenograft (PDX) model. […] Right: Histological similarities of in-vitro vs. in-vivo drug-refractory malignant foci.
as §2

[3] = tested on: drug-refractory prostate cancer 3-D organoids; assay: Re-exposure of drug-refractory prostate cancer 3-D organoids to afatinib and vinblastine; conditions: re-exposed to afatinib and vinblastine (100 nM) 5 days after first exposure drug-washout
Experimental: FIG. 10: Afatinib-refractory and vinblastine-refractory prostate cancer 3-D organoids longitudinally exposed to afatinib and vinblastine (100 nM) 5 days after the first exposure drug-washout.

SMILES	cell killing (viability curve) (MDA-MB-231 3-D organoids)	cell killing (viability curve) (MDA-MB-231 2-D cultures)	regrowth of drug-refractory organoids after drug washout [1]	cell viability curve [2]	cross-resistance of organoids refractory to the named drug [3]
CC(=O)O[C@@]12CO[C@@H]1C[C@H](O)[C@@]1(C)C(=O)[C@H](O)C3=C(C)[C@@H](OC(=O)[C@H](O)[C@@H](NC(=O)OC(C)(C)C)c4ccccc4)C[C@@](O)([C@@H](OC(=O)c4ccccc4)[C@H]21)C3(C)C [docetaxel]	only a fraction of the cells	kills virtually all the cells	ability of drug-refractory organoid to regenerate fully-grown organoids	–	–
CC[C@]1(O)C[C@@H]2CN(CCc3c([nH]c4ccccc34)[C@@](C(=O)OC)(c3cc4c(cc3OC)N(C)[C@H]3[C@@](O)(C(=O)OC)[C@H](OC(C)=O)[C@]5(CC)C=CCN6CC[C@]43[C@@H]65)C2)C1 [vinblastine]	–	–	–	cell viability curve plateauing	cross-resistance
